Source: ChEMBL document CHEMBL4359817 (J Med Chem, 2019)
Converted amounts (≈) assume the structure as drawn. Blank lines part the entries; values can stand above or below the compound they belong to.

Assays:
[1] = Lipophilicity, log D of the compound at pH 7.4; assay type: physicochemical; conditions: buffer
[2] = Intrinsic clearance in human hepatocytes assessed per million cells; assay type: ADME, cell-based, Hepatocyte; conditions: read-out: CLH
[3] = Intrinsic clearance in human microsomes; assay type: ADME, Microsome
[4] = Intrinsic clearance in rat hepatocytes assessed per million cells; assay type: ADME, cell-based, Hepatocyte; conditions: read-out: CLH
[5] = Clearance in iv or po dosed Han Wistar rat; assay type: ADME, organism-based; conditions: in vivo
[6] = Volume of distribution at steady state in iv or po dosed Han Wistar rat; assay type: ADME, organism-based; conditions: in vivo, read-out: Vdss
[7] = Oral bioavailability in Han Wistar rat; assay type: ADME, organism-based; conditions: in vivo
[8] = Thermodynamic aqueous solubility of the compound at pH 7.4; assay type: physicochemical; conditions: read-out: Therm_solubility
[9] = Thermodynamic aqueous solubility of the compound at pH 7.4 using amorphous form of sample; assay type: physicochemical; conditions: read-out: Therm_solubility
[10] = Clearance in dog at 1 mg/kg, po or 0.5 mg/kg, iv; assay type: ADME, organism-based, Canis lupus familiaris; conditions: in vivo
[11] = Oral bioavailability in dog at 1 mg/kg; assay type: ADME, organism-based, Canis lupus familiaris; conditions: in vivo
[12] = Time at which plasma concentration stays above in vitro fGI50 for antiproliferative activity against human NCI-H1703 cells in nude mouse at 100 mg/kg, po; assay type: organism-based; conditions: in vivo
[13] = Thermodynamic aqueous solubility of the compound at pH 7.4 using crystalline form of sample; assay type: physicochemical; conditions: read-out: Therm_solubility
[14] = Volume of distribution at steady state in dog at 1 mg/kg, po or 0.5 mg/kg, iv; assay type: ADME, organism-based, Canis lupus familiaris; conditions: in vivo, read-out: Vdss
[15] = Drug level in SCID mouse plasma xenografted with human NCI-H1703 cells at 100 mg/kg, po administered once daily via gavage for 21 days measured 4 hrs post-last dose; assay type: ADME, organism-based
[16] = Drug level in SCID mouse plasma xenografted with human NCI-H1703 cells at 100 mg/kg, po administered once daily via gavage for 21 days measured 24 hrs post-last dose; assay type: ADME, organism-based
[17] = Drug level in SCID mouse plasma xenografted with human NCI-H1703 cells assessed as free fraction at 100 mg/kg, po administered once daily via gavage for 21 days measured 4 hrs post-last dose; assay type: ADME, organism-based; conditions: in vivo
[18] = Drug level in SCID mouse plasma xenografted with human NCI-H1703 cells assessed as free fraction at 100 mg/kg, po administered once daily via gavage for 21 days measured 24 hrs post-last dose; assay type: ADME, organism-based; conditions: in vivo
[19] = Time at which plasma concentration stays above in vitro fGI50 for antiproliferative activity against human NCI-H1703 cells in SCID mouse at 100 mg/kg, po; assay type: organism-based; conditions: in vivo
[20] = Clearance in Han Wistar rat at 2 mg/kg, po or 0.5 mg/kg, iv; assay type: ADME, organism-based; conditions: in vivo
[21] = Volume of distribution at steady state in Han Wistar rat at 2 mg/kg, po or 0.5 mg/kg, iv; assay type: ADME, organism-based; conditions: in vivo, read-out: Vdss
[22] = Oral bioavailability in Han Wistar rat at 2 mg/kg; assay type: ADME, organism-based; conditions: in vivo
[23] = Time at which plasma concentration stays above in vitro GI50 for antiproliferative activity against human NCI-H1703 cells in SCID mouse at 100 mg/kg, po; assay type: organism-based; conditions: in vivo
[24] = Clearance in CD1 mouse at 100 mg/kg, po; assay type: ADME, organism-based; conditions: in vivo
[25] = Time at which plasma concentration stays above in vitro fGI50 for antiproliferative activity against human NCI-H1703 cells in SCID mouse at 100 mg/kg, po administered twice daily; assay type: organism-based; conditions: in vivo
[26] = Clearance in Han Wistar rat at 1 mg/kg, po or 0.5 mg/kg, iv; assay type: ADME, organism-based; conditions: in vivo
[27] = Volume of distribution at steady state in Han Wistar rat at 1 mg/kg, po or 0.5 mg/kg, iv; assay type: ADME, organism-based; conditions: in vivo, read-out: Vdss
[28] = Oral bioavailability in Han Wistar rat at 1 mg/kg; assay type: ADME, organism-based; conditions: in vivo

Structure (SMILES): O=C(Cc1ccccc1)Nc1nnc(CCSCCc2nnc(NC(=O)Cc3ccccc3)s2)s1
logD ([1]; read-out: logD): > 4

Structure (SMILES): O=C(Cc1cccc(OC(F)(F)F)c1)Nc1ccc(CCCCc2nnc(NC(=O)Cc3ccccn3)s2)nn1
logD [1]: 3.9
hepatocyte CLint [2]: 8 µL/min/1e6 cells
microsomal CLint [3]: 15 µL/min/mg
hepatocyte CLint [4]: 30.2 µL/min/1e6 cells
clearance [5]: 14 mL/min/kg
Vd [6]: 3 L/kg
bioavailability [7]: 32%

Structure (SMILES): O=C(Cc1ccccc1)Nc1nnc(CCCCCc2nnc(NC(=O)Cc3ccccc3)s2)s1
solubility thermodynamic [8]: < 0.6 µM

Structure (SMILES): O=C(Cc1ccccc1)Nc1nnc(CCCCc2nnc(NC(=O)Cc3ccccc3)s2)s1
solubility thermodynamic [8]: < 0.4 µM

Structure (SMILES): O=C(Cc1ccccc1)Nc1nnc(N[C@@H]2CCN(c3nnc(NC(=O)Cc4ccccc4)s3)C2)s1
solubility thermodynamic [8]: < 0.8 µM
logD ([1]; read-out: logD): 3.8

Structure (SMILES): O=C(Cc1ccccc1)Nc1nnc(N[C@@H]2CCC[C@H]2Nc2nnc(NC(=O)Cc3ccccc3)s2)s1
logD ([1]; read-out: logD): 4.3

Structure (SMILES): CC(=O)N1CCCCC1CC(=O)Nc1nnc(N2CC[C@@H](Nc3nnc(NC(=O)Cc4ccccc4)s3)C2)s1 (some centres undefined)
solubility thermodynamic [8]: 20 µM (≈ 11.4 µg/mL)
logD ([1]; read-out: logD): 2.7

Structure (SMILES): O=C(Cc1ccccc1)Nc1nnc(N[C@@H]2CCN(c3nccnn3)C2)s1
solubility thermodynamic [8]: 94 µM (≈ 36 µg/mL)
logD ([1]; read-out: logD): 2.06
microsomal CLint [3]: < 3 µL/min/mg
hepatocyte CLint [4]: 5 µL/min/1e6 cells
clearance [20]: 54 mL/min/kg
Vd [21]: 2 L/kg
bioavailability [22]: 83%

Structure (SMILES): CN(CCN(C)c1nnc(NC(=O)Cc2ccccc2)s1)c1nnc(NC(=O)Cc2ccccc2)s1
solubility thermodynamic [8]: < 1 µM
logD ([1]; read-out: logD): 3.5

Structure (SMILES): O=C(Cc1ccccc1)Nc1nnc(N[C@@H]2CCN(c3nnc(NC(=O)CC4CCOCC4)s3)C2)s1
solubility thermodynamic [8]: 10 µM (≈ 5.29 µg/mL)
logD ([1]; read-out: logD): 3.2

Structure (SMILES): Nc1nnc(N[C@@H]2CCN(c3nnc(NC(=O)Cc4ccccc4)s3)C2)s1
solubility thermodynamic [8]: 5 µM (≈ 2.01 µg/mL)
logD ([1]; read-out: logD): 1.8

Structure (SMILES): O=C(Cc1ccccc1)Nc1nnc(NCCNc2nnc(NC(=O)Cc3ccccc3)s2)s1
solubility thermodynamic [8]: < 3 µM

Structure (SMILES): CC(=O)Nc1nnc(N2CC[C@@H](Nc3nnc(NC(=O)Cc4ccccc4)s3)C2)s1
solubility thermodynamic [8]: 3 µM (≈ 1.33 µg/mL)
logD ([1]; read-out: logD): 2.5

Structure (SMILES): O=C(Cc1ccccc1)Nc1nnc(NC[C@H]2CCN(c3nnc(NC(=O)Cc4ccccc4)s3)C2)s1
solubility thermodynamic [8]: < 0.8 µM
logD ([1]; read-out: logD): > 4.2

Structure (SMILES): O=C(NCc1ccccc1)c1nnc(N[C@@H]2CCN(c3nccnn3)C2)s1
solubility thermodynamic [8]: > 228 µM
logD ([1]; read-out: logD): 2.2
microsomal CLint [3]: 3 µL/min/mg

Structure (SMILES): O=C(Cc1ccccc1)Nc1nnc(N[C@@H]2CCN(c3nncs3)C2)s1
solubility thermodynamic [8]: 130 µM (≈ 50.4 µg/mL)
logD ([1]; read-out: logD): 2.1

Structure (SMILES): O=C(NCc1ccccc1)c1nnc(N[C@@H]2CCN(c3cccnn3)C2)s1
solubility thermodynamic [8]: > 559 µM
logD ([1]; read-out: logD): 2.24
microsomal CLint [3]: < 3 µL/min/mg
hepatocyte CLint [4]: 31 µL/min/1e6 cells
clearance [26]: 100 mL/min/kg
Vd [27]: 2.7 L/kg
bioavailability [28]: 12%

Continued, in another order:

solubility thermodynamic [8]: < 0.6 µM
logD ([1]; read-out: logD): 3.6
Structure (SMILES): O=C(Cc1ccccc1)Nc1nnc(CCCc2nnc(NC(=O)Cc3ccccc3)s2)s1

logD ([1]; read-out: logD): 1.7
hepatocyte CLint [2]: 3 µL/min/1e6 cells
microsomal CLint [3]: 3 µL/min/mg
hepatocyte CLint [4]: 4.1 µL/min/1e6 cells
clearance [5]: 12 mL/min/kg
Vd [6]: 0.6 L/kg
bioavailability [7]: 41%
solubility thermodynamic [9]: 516 µM (≈ 213 µg/mL)
clearance [10]: 1 mL/min/kg
bioavailability [11]: 90%
Structure (SMILES): CO[C@H](C(=O)Nc1nnc(N[C@@H]2CCN(c3nccnn3)C2)s1)c1ccccc1
Time [12]: 24 h

logD ([1]; read-out: logD): 1.9
hepatocyte CLint [2]: < 1 µL/min/1e6 cells
microsomal CLint [3]: < 3 µL/min/mg
hepatocyte CLint [4]: 4.6 µL/min/1e6 cells
clearance [5]: 35 mL/min/kg
Vd [6]: 2.4 L/kg
bioavailability [7]: 47%
solubility thermodynamic [13]: 78 µM (≈ 32.1 µg/mL)
clearance [10]: 4 mL/min/kg
Vd [14]: 0.3 L/kg
bioavailability [11]: 60%
concentration at 4 h [15]: 3.57 µM
concentration at 24 h [16]: 3.63 µM
Cp(f) [17]: 0.582 µM
Cp(f) [18]: 0.592 µM
Structure (SMILES): CO[C@H](C(=O)Nc1nnc(N[C@@H]2CCN(c3cccnn3)C2)s1)c1ccccc1
Time [19]: 24 h

solubility thermodynamic [8]: 95 µM (≈ 38.2 µg/mL)
logD ([1]; read-out: logD): 1.9
Structure (SMILES): Nc1nnc(N2CC[C@@H](Nc3nnc(NC(=O)Cc4ccccc4)s3)C2)s1

solubility thermodynamic [8]: 20 µM (≈ 7.93 µg/mL)
logD ([1]; read-out: logD): 0.85
Structure (SMILES): Nc1nnc(N[C@@H]2CCN(c3ccc(NC(=O)Cc4ccccc4)nn3)C2)s1

solubility thermodynamic [8]: 14 µM (≈ 5.34 µg/mL)
logD ([1]; read-out: logD): 2.2
hepatocyte CLint [2]: < 1 µL/min/1e6 cells
microsomal CLint [3]: 3 µL/min/mg
hepatocyte CLint [4]: 2 µL/min/1e6 cells
clearance [5]: 50 mL/min/kg
Vd [6]: 1.6 L/kg
bioavailability [7]: 2%
CL/F [24]: 101 mL/min/kg
Structure (SMILES): O=C(Cc1ccccc1)Nc1nnc(N[C@@H]2CCN(c3cccnn3)C2)s1
Time [23]: 10 h

solubility thermodynamic [8]: 150 µM (≈ 81.3 µg/mL)
logD ([1]; read-out: logD): 1.3
Structure (SMILES): CN1CCC(CC(=O)Nc2nnc(N3CC[C@@H](Nc4nnc(NC(=O)Cc5ccccc5)s4)C3)s2)CC1

logD ([1]; read-out: logD): 2.6
microsomal CLint [3]: < 3 µL/min/mg
hepatocyte CLint [4]: 8.7 µL/min/1e6 cells
clearance [5]: 55 mL/min/kg
Vd [6]: 1.9 L/kg
bioavailability [7]: 0%
solubility thermodynamic [9]: 329 µM (≈ 130 µg/mL)
Structure (SMILES): C[C@H](C(=O)Nc1nnc(N[C@@H]2CCN(c3cccnn3)C2)s1)c1ccccc1
Time [19]: 15 h
Time [25]: 24 h
